The text below walks through data of patent US20230212159A1, “Process for the Production of Ferroportin Inhibitors” (Vifor (International) AG, priority 2020, published 2023).

In the assay the target is T1, ferroportin (Fpn) (Mus musculus, UniProt Q9JHI9).
T1 construct: endogenous in cells; host or cells: J774 mouse macrophage cell line
T1 sequence (Q9JHI9 1-570): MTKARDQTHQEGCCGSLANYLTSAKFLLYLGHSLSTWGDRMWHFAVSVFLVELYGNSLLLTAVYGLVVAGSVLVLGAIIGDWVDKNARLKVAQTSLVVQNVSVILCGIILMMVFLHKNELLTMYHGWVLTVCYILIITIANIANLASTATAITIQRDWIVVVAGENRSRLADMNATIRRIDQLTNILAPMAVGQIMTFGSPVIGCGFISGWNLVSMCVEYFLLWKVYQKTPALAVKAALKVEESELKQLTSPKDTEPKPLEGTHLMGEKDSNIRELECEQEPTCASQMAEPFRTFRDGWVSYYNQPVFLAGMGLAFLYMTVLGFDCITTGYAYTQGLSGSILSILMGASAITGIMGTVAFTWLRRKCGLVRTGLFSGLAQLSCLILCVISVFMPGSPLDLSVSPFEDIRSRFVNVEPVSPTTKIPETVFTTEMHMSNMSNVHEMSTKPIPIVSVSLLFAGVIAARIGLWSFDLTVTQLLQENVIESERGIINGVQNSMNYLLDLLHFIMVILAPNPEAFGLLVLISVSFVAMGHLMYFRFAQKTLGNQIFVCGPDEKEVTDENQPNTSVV
Put plainly: Hepcidin internalization assay (J774). In kind it is cell-based. The text has this:
This cellular assay allows quantification of the binding of hepcidin to ferroportin (Fpn) through microscopic detection of internalization of a fluorescently labeled hepcidin into J774 cells. […] Binding of hepcidin to Fpn triggers internalization and degradation of both hepcidin and Fpn. However, the TMR (6-carboxytetramethylrhodamine) fluorophore attached to hepcidin remains associated with the cell after degradation of the hepcidin peptide backbone. Therefore, microscopic detection of cell-associated TMR fluorescence is a measure of hepcidin binding to Fpn and internalization of hepcidin and Fpn. If TMR-hepcidin is prevented from binding to Fpn, cellular TMR fluorescence remains low (Dürrenberger et al, 2013). The effect of small molecular weight Fpn inhibitor compounds in this assay was evaluated in vitro as described below.
J774 cells, harvested from ca. 80% confluent cultures, were plated at 8x10^5 cells/ml in complete medium (DMEM, 10% FBS, 1% Penicillin-Streptomycin) containing 200 µM Fe(III)NTA (nitrilotriacetic acid), 100 µl per well of 96 well MicroClear plates (Greiner; Cat. 655090) and grown at 37° C. with 5% CO2. After overnight incubation, cells were washed 3 times with prewarmed DMEM w/o phenol red, 30 µl/well of DMEM w/o phenol red was added after the final wash and 10 µl/well of dilution series of test compounds were added in triplicates. J774 cells were pre-incubated with test compounds at 37° C. with 5% CO2 for 15 min. before TMR-hepcidin was added at 25 nM final concentration. Cells were incubated in a total volume of 50 µl at 37° C. with 5% CO2 for 2 hours, then Hoechst 33342 dye was added to a final concentration of 0.5 µg/ml to stain nuclei and further incubated for 10 min. at 37° C. with 5% CO2. Cells were washed 3 times with PBS and fixed in 100 µl of 4% paraformaldehyde in PBS for 15 min. at room temperature. After removal of the paraformaldehyde solution, cells were washed 3 times with PBS leaving 100 µl per well and the plates were sealed with foil plate seal. TMR (530-550 nm excitation / 575-625 nm emission / 400 ms exposure time) and Hoechst 33342 (360-370 nm excitation / 420-460 nm emission / 10 ms exposure time) fluorescence images were acquired using a ScanR plate imager (Olympus) with a 20x high NA objective. Four pictures were acquired per well and fluorescence channel covering ca. 1500 cells per well. The acquired image data was analysed with the ScanR image analysis software. Image analysis included detection of nuclei (Hoechst 33342 fluorescence), identification of cell-associated regions, application of a virtual channel and thresholding for rolling-ball-type background reduction, followed by application of the Sum(Mean) algorithm to measure the TMR fluorescence associated with cells as a quantitative measure for internalized TMR- hepcidin. IC50 values were calculated with the Sum(Mean) raw data using “log(inhibitor) vs. response” curve fitting of Prism 5 software (GraphPad Software Inc., version 5.02). For each data set the fit of the “log(inhibitor) vs. response (three parameters)″ model was compared to the fit of the “log(inhibitor) vs. response - Variable slope (four parameters)″ model and the IC50 data of the preferred model was used. IC50 data of the Compounds according to formula (II) and (II′), that were tested in the hepcidin internalization assay are shown in Table 1.

The mark [1] stands for this setting: J774 cells, (II) and (II′) tested as 3HCl-salts, n=2, read-out: Hepcidin internalization (J774) IC50.
Where [2] appears, read: average of multiple measurements, hepcidin internalization assay, 3HCl-salts, read-out: J774 IC50.

Like-named read-outs stand apart in the source and are kept apart here.

As for `O=C(NCc1ncccc1F)c1coc(CCNCCc2nc3ccccc3[nH]2)n1` [Compound (II)], the IC50 is 7.3 nM under setting [1] and 7 nM under setting [2].
In the case of `CC[C@H](C)[C@@H]1NC(=O)[C@@H](NC(=O)[C@@H](NC(=O)[C@@H]2CCCN2C(=O)[C@H](Cc2ccccc2)NC(=O)[C@H](Cc2c[nH]cn2)NC(=O)[C@@H](NC(=O)[C@@H](N)CC(=O)O)[C@@H](C)O)[C@@H](C)CC)CSSC[C@@H](C(=O)N[C@@H](CCCCN)C(=O)N[C@H](C(=O)O)[C@@H](C)O)NC(=O)[C@@H]2CSSC[C@@H]3NC(=O)[C@@H]4CSSC[C@H](NC(=O)[C@H](Cc5ccccc5)NC1=O)C(=O)N[C@@H](CSSC[C@H](NC(=O)[C@H](CCCCN)NC(=O)[C@H](CO)NC(=O)[C@H](CCCNC(=N)N)NC(=O)[C@H](Cc1c[nH]cn1)NC3=O)C(=O)NCC(=O)N[C@@H](CCSC)C(=O)N2)C(=O)NCC(=O)N4` [hepcidin, reference compound], under setting [1], the IC50 worked out at 10.7 nM.
Regarding `O=C(NCc1ncccc1Br)c1coc(CCNCCc2nc3ccccc3[nH]2)n1` [Compound (II′)], the IC50 runs as follows: under setting [1], 5.9 nM; under setting [2], 6 nM.
